# Reference: US7741274B2, “Casein derived peptides and uses thereof in therapy” (priority 2000, dated 2010)
# How the values were obtained:
# [1] = system: HIV-1IIIB; assay: Inhibition of HIV-1 infection of CEM lymphocytes (cell counts, P24 antigen assay); type: cell-based; settings: for HIV-1 infection level, P24 antigen: untreated control 0.52
# Protocol: Inhibition of in vitro HIV infection of human lymphocyte cells:
# Peptides: Peptides (either peptides derived from natural casein or synthetic peptides derived from casein (1-25 amino acids in length, see table 3) supplied as lyophilized powder were resuspended in RPMI complete medium and added to cell cultures at a final concentrations of 50 to 1000 μg per ml.
# Cells: Several types of freshly isolated human cells (primary cells) and cell lines are known to be susceptible to in vitro HIV-1 infection, although essentially any cell displaying even low surface levels of the CD4 molecule can be considered a potential target for HIV-1 infection. Two commonly used human cell lines which are highly sensitive for HIV-1 infection were chosen, CEM and Sup-T1.
# CEM is a human T4-lymphoblastoid cell line initially derived by G. E. Foley et al. [(1965), Cancer 18:522] from peripheral blood buffy coat of a person with acute lymphoblastic leukemia. These cells were continuously maintained in suspension in medium, and have been used widely for analysis of infectivity, antiviral agents and neutralizing antibodies.
# Virus: The HIV virus strain employed was HIV-1IIIB, originally designated HTLV-IIIB. Concentrated culture fluids of peripheral blood from several patients with AIDS or related diseases were used to establish a permanent productive infection in H-9 cells. This subtype B virus has high capacity to replicate in human T-cell lines. Viral titer was 5.38 ng per ml in stock solution.
# HIV-1 P24 antigen capture assay: An HIV-1 P24 Antigen capture assay kit employed was designed to quantitate the HIV-1 P24 core antigen, which is proportionally related to the degree of viral production in cells. This kit was purchased from the AIDS Vaccine program of the SAIC-NCI-Frederick Cancer Research Institute, P.O. Box B, Frederick, Md. 21702, USA and included 96 well plates coated with monoclonal antibody to HIV-1 P24, primary antibody-rabbit anti-HIV P24 serum, secondary antibody-Goat anti-rabbit-IgG (H+ L) peroxidase conjugated antibody, TMB peroxidase substrate system and lysed HIV-1 P24 standard. The HIV-1 P24 antigen capture assay was analyzed by Organon-Technica ELISA reader at 450 nm with a reference at 650 nm.
# HIV-1 P24 antigen capture ELISA: HIV infection was measured with an indirect enzyme immunoassay which detects HIV-1 P24 core antigens in tissue culture media. Tissue culture supernatant was reacted with primary rabbit anti-HIV-1 P24 antigen and visualized by peroxidase conjugated goat anti rabbit IgG. The reaction was terminated by adding 4N H2SO4, wherein the intensity of the color developed is proportional to the amount of HIV-1 antigen present in the tissue culture supernatant.
# HIV infection of human cultured CD4+ cells: The cells (CEM, Sup-T1) were preincubated with several increasing concentrations of peptides derived from natural casein (50-1000 μg per ml) or synthetic peptides derived from casein (10-500 μg per ml) for 3, 24 (for synthetic and natural peptides) and 48 (only for natural peptides) hours and HIV-1IIIB (45 μg per ml final concentration) was added to each well thereafter. HIV-1IIIB was preincubated with the peptides for 3 hours and then added to cells (5000 cells/well) in tissue culture plates. Controls were IF (Infected, cells cultured with HIV-1 and without peptides), UIF (Uninfected, cells cultured without HIV-1 and without peptides) and UIF+Ch (Uninfected+peptides derived from natural casein, cells cultured in the presence of peptides derived from natural casein {50-1000 μg per ml}) to test the effect of peptides derived from natural casein and synthetic peptides derived from casein on cell viability and growth. Cells were counted for viability and proliferation rate on day 7, 10 and day 14 post infection (the day of P24 antigen culture supernatant harvest). Cells and tissue culture supernatants (media) were harvested and lysed immediately in 1/10 volume of 10% Triton X-100. […]
# [2] = system: murine primary bone marrow cells; assay: Multipotential colonies (CFU-GEMM) from murine bone marrow cells, colony and differential counts; type: cell-based, mouse; settings: for megakaryocyte formation and development: 8 days treatment; for macrophages, % of total cell count: approximately 17% in unincubated controls
# Protocol: Stimulation of Hematopoiesis from Bone Marrow (BM) Cells in Culture:
# Proliferation of megakaryocytes in multipotential colonies (CFU-GEMM) from murine Bone Marrow cells: Primary bone marrow cells (1×10^5 per ml) from 8-12 week-old C3H/HeJ mice were grown in serum-free methyl cellulose-IMDM medium for 8-9 days at 5% CO2, 95% air, at 37° C. The medium, appropriate for the growth of multipotential colonies (CFU-GEMM), contained 1% BSA (Sigma), 10^−4 M thioglycerol (Sigma), 2.8×10^−4 M human transferrin (TF, Biological industries, Israel), 10% WEHI-CM as a source of IL-3 and 2 units per ml erythropoietin (rhEPO, R & D Systems, Minneapolis). Colonies were scored after 8-9 days using an Olympus dark field microscope. They were picked with a micropipette, cytocentrifuged and stained with May-Grunwald-Giemsa for differential counts. At least 700 cells were counted for each preparation. […]
# Proliferation of Macrophage cells in CFU-GEMM: Multipotent (CFU-GEMM colonies grown from primary bone marrow cells as described for the assay of megakaryocyte proliferation above were collected, stained and counted for macrophage cells. At least 700 cells were counted for each preparation.
# Proliferation of Red Blood Cells in CFU-GEMM: Multipotent (CFU-GEMM) colonies grown from primary bone marrow cells as described for the assay of megakaryocyte proliferation above were collected, stained and counted for red blood cells. At least 700 cells were counted for each preparation. […]
# [3] = system: lethally irradiated, bone marrow-reconstituted mice; assay: Leukocyte and platelet reconstitution in bone marrow transplant recipient mice; type: in vivo, mouse; settings: for platelet counts: 800 cGy, 100 μg per mouse i.p. on days 4-7; for peripheral white blood cell counts: BALB/c, 600 cGy, 1 mg per mouse intraperitoneal
# Protocol: Leukocyte and platelet reconstitution in bone marrow transplant recipient mice: BALB/c mice were lethally irradiated at a source to skin distance of 70 cm, dosage of 50 cGy per minute, for a total of 600 cGy. The irradiated mice were […] casein, synthetic peptides derived from casein (13-26 amino acids, see Table 3 above), or human serum albumin (controls), following a double-blinded protocol. Leukocyte reconstitution was determined according to cell count in peripheral blood collected at indicated intervals from 6 to 12 days post treatment. Platelet reconstitution was determined by cell count in blood collected from the retro orbital plexus, into heparinized capillaries, at indicated intervals from day 6 to day 15 post treatment.
# In an additional series of experiments, CBA mice were lethally irradiated (900 cGy), reconstituted and treated with peptides derived from natural casein or human serum albumin as described above. Platelet reconstitution was assayed as mentioned above.
# In a third series of experiments, the mice were irradiated (800 cGy), reconstituted and injected intraperitoneally with 100 μg synthetic peptides derived from casein (peptides 3a and 4P, representing the first 6 and 12 amino acids of the N terminus of αS1 casein, respectively—see Table 3 above) daily, on days 4, 5, 6 and 7 post-transplantation. Platelet reconstitution was assayed at 10 and 12 days post-transplantation.
# [4] = system: Non-Obese Diabetic (NOD) mice; assay: Prevention of glucosuria / Juvenile (Type I, IDDM) Diabetes in NOD mice; type: in vivo, mouse; settings: for Healthy/Total* (healthy and well = sugar not detected in urine): female NOD mice; for onset of glucosuria: assayed at week 16, untreated controls 100% glucosuria, data not shown
# Protocol: Juvenile (Type I, IDDM) Diabetes in Non-Obese Diabetic (NOD) Mice:
# Peptides Derived from Natural Casein:
# NOD mice are a commonly used model for research of autoimmune disease and human Juvenile Diabetes. Six week old female NOD mice received either one or two injections per week of 100 μg of peptides derived from natural casein, for a total of 5 or 11 treatments. Control mice received no treatment. The severity of disease was determined according to glucosuria, which was measured using Combi test sticks [Gross, D. J. et al. (1994), Diabetology, 37:1195]. Results were expressed as the percent of glucosuria-free mice in each sample over a 365-day period.
# Synthetic Peptides Derived from Casein:
# In another experiment, 6 week old female NOD mice received one injection per week of 100 μg of Synthetic peptides derived from casein for a total of 5 treatments. Control mice received no treatment. Results were expressed as the number of healthy mice in the various treated groups.
# [5] = system: Non-Obese Diabetic (NOD) mice; assay: Intraperitoneal Glucose Tolerance Test (IPGTT) in NOD mice; type: in vivo, mouse; set-up: IPGT TEST 0 min. (pre-load), plasma glucose: unit not given here; settings: individual healthy NOD mice, 25 weeks after peptides
# Protocol: Intraperitoneal Glucose Tolerance Test (IPGTT):
# The glucose tolerance test is the definitive method for investigating glucose metabolism and diabetic tendencies in mammals. Twenty five (25) weeks after receiving Synthetic peptides derived from casein, response to a glucose load was assessed with an intraperitoneal glucose tolerance test. Glucose injection consisted of 1 g/kg body weight. Glycemic values were determined from blood drawn prior to test (0 minutes) and 60 minutes after loading.
# [6] = system: human Peripheral Blood Stem Cells (PBSC); assay: Natural Killer (NK) cell activity in cultured human PBSC (lysis of K562 target cells); type: cell-based
# Protocol: Stimulation of Proliferation of Natural Killer (NK) Cells:
# From human Peripheral Blood Stem Cells (PBSC): PBSC of G-CSF treated subjects were separated on a FICOLL gradient, washed twice with RPMI-1640 medium and seeded into 1.5 ml wells with or without peptides derived from natural casein or synthetic peptides derived from casein, as indicated, (0-500 μg per ml). Following two days incubation the cells were assayed for Natural Killer activity by measuring radioactivity released from ^35S-labeled K562 target cells (NEG-7Q9A, 185.00 MBq, 2.00 mCi EASYTAGth Methionine, L-[^35S] 43.48 TBq per mmol, 1175.0 Ci per mmol, 0.488 ml, Boston USA). Two concentrations of effector cells ([…] cells per well) were incubated with 5×10^3 target cells per well (effector:target cell ratios of 50:1 and 100:1, respectively) in U-bottomed 96 well tissue culture plates. The cells were incubated for 5 hours at 37° C. in 5% CO2, 95% air and precipitated by 5 minutes centrifugation at 1000 rpm. ^35S release was measured in 50 μl samples of the supernatant liquid.
# [7] = 12 days post transplantation, controls 676 (4P) and 461 (3a)
# [8] = 100 μg once weekly for 5 weeks, evaluated after 25 weeks
substance,measurement,setting,value
RPKHPI [4P],cell counts,"[1]; 25 μg per ml, 3 hours pretreatment, infected control 1.06×10^6",1.26 ×10^6
same,cell numbers,"[1]; 250 μg per ml, 3 hours preincubation, infected control 1.06×10^6",1.59 ×10^6
same,resistance of CEM cells to HIV-1 infection (in words),[1]; 3 hours pretreatment,significant effect on the susceptibility
same,"viral particles by HIV-P24 antigen assay vs untreated, infected control",[1]; 7 days post infection,dose dependent reduction
same,megakaryocyte formation and development,[2],significant increase
same,increase of platelet counts over untreated controls,[3]; 12 days post transplantation,29%
same,platelet counts,[3]; [7],872000 mL⁻¹
RPKHPIKHQGLPQEVLNENLL,megakaryocyte formation and development,[2],significant increase
same,Healthy/Total* (healthy and well = sugar not detected in urine),[4]; [8],2/5
RPKHPIKHQGLPQEVLNENLLRF,"macrophages, % of total cell count",[2],~30%
same,Healthy/Total* (healthy and well = sugar not detected in urine),[4]; [8],2/5
RPKHPIKHQGLPQEVLN,megakaryocyte formation and development,[2],significant increase
same,peripheral white blood cell counts,"[3]; day 10, albumin control 16.7",27.4 ×10^6 cells per dl
same,peripheral white blood cell counts,"[3]; day 12, albumin control 46.4",52.0 ×10^6 cells per dl
RPKHPIKHQGLPQEVLNENLLR [J],Healthy/Total* (healthy and well = sugar not detected in urine),[4]; [8],3/5
RPKH [2P],"red blood cells, % of total cell count",[2]; 53% in unincubated controls,71%
same,onset of glucosuria,[4],effectively prevented
RPKHPIKH [Y],Healthy/Total* (healthy and well = sugar not detected in urine),[4]; [8],1/5
RPKHPIKHQGLPQEVLNEN,megakaryocyte formation and development,[2],significant increase
RPKHPIKHQG [1a],"IPGT TEST 0 min. (pre-load), plasma glucose",[5],88
same,Healthy/Total* (healthy and well = sugar not detected in urine),[4]; [8],1/5
RPKHPIKHQGLPQEVLNE [F],megakaryocyte formation and development,[2],significant increase
RPKHPIKHQGLPQE [B],"IPGT TEST 0 min. (pre-load), plasma glucose",[5],130
same,"IPGT TEST 60 min. post load, plasma glucose",[5]; glucose 1 g/kg i.p.,97 mmol/L
same,Healthy/Total* (healthy and well = sugar not detected in urine),[4]; [8],2/5
RPKHPIKHQGLP [3a],megakaryocyte formation and development,[2],significant increase
same,increase of platelet counts over untreated controls,[3]; 10 days post transplantation,up to 35.5%
same,platelet counts,"[3]; 10 days post transplantation, control 169",229000 mL⁻¹
same,increase of platelet counts over untreated controls,[3]; 12 days post transplantation,up to 13.5%
same,platelet counts,[3]; [7],622000 mL⁻¹
same,prevention of glucosuria (in words),[4]; [8],highly effective
same,Healthy/Total* (healthy and well = sugar not detected in urine),[4]; [8],3/5
RPKHPIKHQGLPQEVLNENLLRFF,megakaryocyte formation and development,[2],significant increase
RPKHPIKHQGLPQ [A],peripheral white blood cell counts,"[3]; day 10, albumin control 16.7",17.2 ×10^6 cells per dl
same,peripheral white blood cell counts,"[3]; day 12, albumin control 46.4",65.4 ×10^6 cells per dl
same,Healthy/Total* (healthy and well = sugar not detected in urine),[4]; [8],2/5
RPK [1P],lymphocyte cell numbers,"[1]; 100 μg per ml, 3 hours pretreatment, infected control 1.06×10^6",1.29 ×10^6
same,"HIV-1 infection level, P24 antigen","[1]; 100 μg/ml, 7 days post infection",0.17 ng P24 Antigen/ml
same,lymphocyte cell numbers,"[1]; 500 μg per ml, 3 hours pretreatment, infected control 1.06×10^6",2.01 ×10^6
same,"HIV-1 infection level, P24 antigen","[1]; 500 μg/ml, 7 days post infection",0.14 ng P24 Antigen/ml
same,resistance of CEM cells to HIV-1 infection (in words),[1]; 3 hours pretreatment,significant degree of resistance to infection
same,effect on NK activity in PBSC cultures from healthy human donors,[6],No significant effect
same,patients (of 5 tested) responding,[6]; 25 μg/ml peptide concentration,3
same,patients (of 5 tested) responding,[6]; 100 μg/ml peptide concentration,1
same,patients (of 5 tested) responding,[6]; 250 μg/ml peptide concentration,1
same,onset of glucosuria,[4],effectively prevented
RPKHPIKHQGLPQEVL [D],"macrophages, % of total cell count",[2],~30%
same,Healthy/Total* (healthy and well = sugar not detected in urine),[4]; [8],2/5
RPKHPIKHQGLPQEVLNENL,megakaryocyte formation and development,[2],significant increase
RPKHPIK [5P],"macrophages, % of total cell count",[2],~30%
